Test results reported in US9861616B2, “Methods for treating respiratory diseases and formulations therefor” (priority 2013, dated 2018).
Like-named read-outs stand apart in the source and are kept apart here.

Key:
[1] = tested on: IL-8 (CXCL8) release; test: LPS-induced IL-8 (CXCL8) release in PMA-differentiated U937 cells (ELISA); assay type: cell-based, human
Method: Effects of macrolides on lipopolysaccharide (LPS)-induced CXCL8 release in PMA-differentiated U937 cells. […] LPS-induced CXCL8 release was evaluated by ELISA. Values represent means of three experiments±SEM. ^##p<0.01 (vs. non-treatment control), *p<0.05, **p<0.01 (vs. treatment with LPS only).
The human monocytic cell line U937 was obtained from the American Type Culture Collection (ATCC, Rockville, Md.). PBMCs from COPD patients were obtained from Brompton hospital and separated by AccuSPIN (Sigma-Aldrich). Cells were cultured in complete growth medium (RPMI 1640) (Sigma-Aldrich) supplemented with 10% fetal bovine serum (FBS) and 1% L-glutamine at 37° C. in a humidified atmosphere with 5% CO2. U937 cells were differentiated into adherent macrophage-like morphology by exposure to PMA (50 ng/mL) for 48 hrs in complete growth medium. Cell viability was assessed microscopically by trypan blue staining. Cell toxicity was determined by MTT assay as needed. This study was approved by the ethics committee of the Royal Brompton Hospitals, and all subjects gave written informed consent.
TNFα and IL-8 concentrations in the supernatant of cell cultures were determined by sandwich ELISA according to the manufacturer's instructions (R&D Systems Europe, Abingdon, UK).
The results were expressed as the mean±SEM. Comparisons of data in two groups were performed using the Student's t test or the Wilcoxon signed rank test. Multiple comparisons were made by one-way ANOVA with post hoc test (Dunnett's) as appropriate. The difference was considered significant at p<0.05. IC50 values (50% inhibitory concentration) for macrolides for production of cytokines or MMP9 were calculated using Prism 4.0 (GraphPad Software Inc., San Diego, Calif.).

[2] = tested on: P. aeruginosa PA403; test: MIC by microdilution with PaβN or EGTA, efflux-deleted laboratory strain; assay type: cell-based; conditions: Pseudomonas aeruginosa, read-out: MIC
Method: (§1) The compounds described herein are poor substrates of efflux pumps expressed in P. aeruginosa (PA). MICs of 36 clinical and laboratory strains of PA with known efflux phenotype are measured by microdilution in cation-adjusted Muller-Hinton broth (CA-MHB) or in RPMI medium (commonly used in eukaryotic cell culture). Phe-Arg-β-naphthylamide (PaβN, 50 mg/L) and EGTA 5 mM are used to inhibit efflux pumps and alter OM integrity, respectively. P. aeruginosa strain ATCC PAO1 is used as reference. PA12 is a clinical strain overexpressing the 4 main efflux systems (MexAB, MexCD, MexEF, MexXY), PA403 is a laboratory strain deleted in the genes coding for the 4 efflux systems. A series of reference strains or of clinical isolates for which the expression of genes coding for efflux pumps is known is also used for MICs determinations. MICs are measured by microdilution in MH broth or in RPMI medium (used for eukaryotic cells culture) supplemented with 10% of fetal calf serum, or in MH broth supplemented by increasing amounts of serum. EGTA (5 mM) was used as a chelating agent (disrupting outer membrane integrity) and PaβN (50 mg/L) as an unspecific efflux inhibitor.

[3] = tested on: P. aeruginosa (PA); test: MIC by microdilution, 36 clinical and laboratory strains with known efflux phenotype; assay type: cell-based
Method: as §1, with “MICs” for “The compounds described herein are poor substrates of efflux pumps expressed in P. aeruginosa (PA). MICs”

CC[C@H]1OC(=O)[C@H](C)[C@@H](O[C@H]2C[C@@](C)(OC)[C@@H](O)[C@H](C)O2)[C@H](C)[C@@H](O[C@@H]2O[C@H](C)C[C@H](N(C)C)[C@H]2O)[C@](C)(O)C[C@@H](C)C(=O)[C@H](C)[C@@H](O)[C@]1(C)O [ERY, erythromycin]
2 µg/mL: MIC ([3]; strain 397, efflux AB−, RPMI)
> 333 µM: IC50 ([1]; Homo sapiens, U-937, U937 cells, at 333 μM, read-out: IC50, LPS-induced IL-8 release: NE at 333 μM)
8 µg/mL: MIC ([3]; strain 1, efflux AB+, RPMI) | MIC ([3]; strain 3, efflux EF+, RPMI) | MIC ([3]; strain 401, ompH−, MHB) | MIC ([3]; strain 405, efflux AB − CD − EF − XY−, MHB)
did not inhibit: effect on IL-8 production ([1]; 33 to 333 μM (FIG. 4))
16 µg/mL: MIC ([2]; PA403, P403, CA-MHB, EGTA 5 mM) | MIC ([2]; PA403, P403, CA-MHB, control conditions (CT)) | MIC ([3]; strain 11, efflux AB + CD+, RPMI) | MIC ([3]; strain 156, efflux EF + XY+, RPMI) | MIC ([3]; strain 392, efflux CD−, RPMI) | MIC ([3]; strain 396, ompH−, RPMI) | MIC ([3]; strain 397, efflux AB−, MHB) | MIC ([3]; strain 398, efflux CD−, MHB) | MIC ([3]; strain 399, efflux AB − EF−, MHB) | MIC ([3]; strain 400, efflux XY−, MHB) | MIC ([3]; strain 403, efflux AB − CD − EF − XY−, MHB)
512 µg/mL: MIC ([3]; strain 1, efflux AB+, MHB) | MIC ([3]; strain 2, efflux CD+, MHB) | MIC ([3]; strain 4, efflux XY+, MHB) | MIC ([3]; strain 12, efflux AB + CD + EF + XY+, MHB) | MIC ([3]; strain 16, efflux AB + XY+, MHB) | MIC ([3]; strain 21, efflux AB+, MHB) | MIC ([3]; strain 22, efflux XY+, MHB) | MIC ([3]; strain 41, efflux CD+, MHB) | MIC ([3]; strain 48, efflux CD + EF + XY+, MHB) | MIC ([3]; strain 49, efflux CD + EF + XY+, MHB) | MIC ([3]; strain 63, efflux AB + EF + XY+, MHB) | MIC ([3]; strain 68, efflux AB + XY+, MHB) | MIC ([3]; strain 133, efflux EF + XY+, MHB) | MIC ([3]; strain 156, efflux EF + XY+, MHB) | MIC ([3]; strain 168B, efflux CD + XY+, MHB) | MIC ([3]; strain 207, efflux AB + EF + XY+, MHB) | MIC ([3]; strain 266B, efflux AB + CD+, MHB) | MIC ([3]; strain 333A, efflux AB + EF+, MHB) | MIC ([3]; strain 335, efflux AB + EF+, MHB) | MIC ([3]; strain 394, efflux XY−, MHB) | MIC ([3]; strain 434, efflux AB + CD + XY+, MHB) | MIC ([3]; strain PAO1, REFERENCE, MHB)
0.5 µg/mL: MIC ([2]; PA403, P403, RPMI, EGTA 5 mM)
64 µg/mL: MIC ([3]; strain 21, efflux AB+, RPMI) | MIC ([3]; strain 41, efflux CD+, RPMI) | MIC ([3]; strain 48, efflux CD + EF + XY+, RPMI) | MIC ([3]; strain 49, efflux CD + EF + XY+, RPMI) | MIC ([3]; strain 63, efflux AB + EF + XY+, RPMI) | MIC ([3]; strain 68, efflux AB + XY+, RPMI) | MIC ([3]; strain 133, efflux EF + XY+, RPMI) | MIC ([3]; strain 266B, efflux AB + CD+, RPMI) | MIC ([3]; strain 333A, efflux AB + EF+, RPMI) | MIC ([3]; strain 335, efflux AB + EF+, RPMI)
32 µg/mL: MIC ([3]; strain 4, efflux XY+, RPMI) | MIC ([3]; strain 12, efflux AB + CD + EF + XY+, RPMI) | MIC ([3]; strain 16, efflux AB + XY+, RPMI) | MIC ([3]; strain 22, efflux XY+, RPMI) | MIC ([3]; strain 40, efflux EF+, RPMI) | MIC ([3]; strain 391, efflux EF−, RPMI) | MIC ([3]; strain 394, efflux XY−, RPMI) | MIC ([3]; strain 395, efflux HI−, RPMI) | MIC ([3]; strain PAO1, REFERENCE, RPMI)
4 µg/mL: MIC ([2]; PA403, P403, RPMI, PaβN 50 mg/L) | MIC ([2]; PA403, P403, RPMI, control conditions (CT)) | MIC ([3]; strain 398, efflux CD−, RPMI) | MIC ([3]; strain 399, efflux AB − EF−, RPMI) | MIC ([3]; strain 400, efflux XY−, RPMI) | MIC ([3]; strain 401, ompH−, RPMI) | MIC ([3]; strain 403, efflux AB − CD − EF − XY−, RPMI) | MIC ([3]; strain 405, efflux AB − CD − EF − XY−, RPMI)
